Drawing on patent publication US9073830B2 (Hyundai Pharm Co., Ltd., priority 2011, dated 2015), this text covers IC50 for 14 molecules.

The target of assay [1] is T1, human 11β-HSD1 (Homo sapiens, UniProt P28845).
T1 construct: 100 ug/ml human/mouse liver microsomes; from tissue; host or cells: human liver microsomes
Kind of assay: Enzyme activity analysis on human 11β-HSD1 (HTRF cortisol, liver microsomes). It is filed as biochemical. The note with it: first value of cell. The gist of the method: (§1)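 Cortisol generated by mouse or human liver microsome 11β-HSD1 during 2 h at 37° C., measured by HTRF competition (cryptate anti-cortisol antibody, d2-cortisol, 2 h room temperature) against a cortisol standard curve. IC50 from percent inhibition versus no-compound control.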
Background: TR-FRET usually uses a lanthanide donor and a delayed reading to cut background.

Assay [2] has as its target T2, mouse 11β-HSD1 (Mus musculus, UniProt P50172).
T2 construct: 100 ug/ml human/mouse liver microsomes; from tissue; host or cells: mouse liver microsomes
Kind of assay: Enzyme activity analysis on mouse 11β-HSD1 (HTRF cortisol, liver microsomes). Format: biochemical. To be noted: second value of cell. The gist of the method:
as §1

T1 sequence (P28845 whole entry): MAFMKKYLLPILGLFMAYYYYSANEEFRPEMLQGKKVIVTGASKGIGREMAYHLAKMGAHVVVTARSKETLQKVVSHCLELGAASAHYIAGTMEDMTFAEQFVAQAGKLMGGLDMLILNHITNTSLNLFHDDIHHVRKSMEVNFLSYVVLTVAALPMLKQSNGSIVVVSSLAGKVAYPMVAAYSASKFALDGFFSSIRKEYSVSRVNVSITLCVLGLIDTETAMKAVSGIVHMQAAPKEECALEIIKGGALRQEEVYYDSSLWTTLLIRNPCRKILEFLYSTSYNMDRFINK
T2 sequence (P50172 whole entry): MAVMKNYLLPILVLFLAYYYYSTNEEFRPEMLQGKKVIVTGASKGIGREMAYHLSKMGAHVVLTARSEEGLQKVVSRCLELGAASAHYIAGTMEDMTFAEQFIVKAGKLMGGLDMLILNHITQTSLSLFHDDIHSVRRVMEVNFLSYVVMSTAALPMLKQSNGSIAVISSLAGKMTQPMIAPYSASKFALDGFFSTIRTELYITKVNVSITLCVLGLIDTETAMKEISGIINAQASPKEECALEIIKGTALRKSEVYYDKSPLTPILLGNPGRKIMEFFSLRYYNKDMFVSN

By IC50 is commonly meant the concentration that gives 50% inhibition. A high value points to weaker potency in that assay. For the molecule `CC(C)(NS(=O)(=O)c1ccc([N+](=O)[O-])cc1)C(=O)NC1C2CC3CC1CC(O)(C3)C2` (stereo not shown) [compound 78, N-(5-hydroxyadamantane-2-yl)-2-methyl-2-(4-nitrophenylsulfonamido)propanamide], the IC50 in assay [1] worked out at 0.692 µM; in assay [2] it was 1.21 µM.
The matching figures for `CC(C)(NS(=O)(=O)c1ccc(F)cc1)C(=O)NC1C2CC3CC(C2)CC1C3` (stereo not shown) [compound 2, N-(adamantane-2-yl)-2-methyl-2-(4-fluorophenylsulfonamido)propanamide]: 0.1 µM and 0.888 µM.
With `CC(C)(NS(=O)(=O)c1cccnc1Cl)C(=O)NC1C2CC3CC(C2)CC1C3` (stereo not shown) [compound 50, N-(adamantane-2-yl)-2-methyl-2-(2-chloropyridine-3-sulfonamido)propanamide], the IC50 turned out to be 0.105 µM in assay [1] and 0.292 µM in assay [2].
The matching figures for `NC(=O)C12CC3CC(C1)C(NC(=O)C1(NS(=O)(=O)c4ccccc4[N+](=O)[O-])CCCCC1)C(C3)C2` (stereo not shown) [compound 184, N-4-(1-(2-nitrophenylsulfonamido)cyclohexanecarboxyamido)adamantane-1-carboxyamide]: 0.005 µM and 0.104 µM.
`O=C(NC1C2CC3CC(C2)CC1C3)C1(NS(=O)(=O)c2ccccc2Br)CCC1` (stereo not shown) [compound 138, N-(adamantane-2-yl)-1-(2-bromophenylsulfonamido)cyclobutanecarboxyamide]: the IC50 was 0.113 µM in assay [1] and 0.806 µM in assay [2].
With `NC(=O)C12CC3CC(C1)C(NC(=O)C1(NS(=O)(=O)c4cccc(Cl)c4Cl)CCC1)C(C3)C2` (stereo not shown) [compound 158, N-4-(1-(2,3-dichlorophenylsulfonamido)cyclobutanecarboxyamido)adamantane-1-carboxyamide], the IC50 in assay [1] is 0.018 µM; in assay [2], 0.058 µM.
As for `CC(C)(NS(=O)(=O)c1ccc(F)cc1F)C(=O)NC1C2CC3CC(C2)CC1C3` (stereo not shown) [compound 58, N-(adamantane-2-yl)-2-methyl-2-(2,4-difluorophenylsulfonamido)propanamide], the values for the IC50 in assay [1] and in assay [2] were 0.199 µM and 0.621 µM, respectively.
Turning to `CC(C)(NS(=O)(=O)c1cccc(Br)c1)C(=O)NC1C2CC3CC1CC(C(N)=O)(C3)C2` (stereo not shown) [compound 123], the results for the IC50 in assay [1] and in assay [2] were 0.139 µM and 0.291 µM, respectively.
For the molecule `CC(C)(NS(=O)(=O)c1ccccc1)C(=O)NC1C2CC3CC1CC(O)(C3)C2` (stereo not shown) [compound 70], the IC50 in assay [1] turned out to be 0.093 µM; in assay [2], 0.378 µM.
The corresponding values for `CC(C)(NS(=O)(=O)c1ccc(Cl)cc1Cl)C(=O)NC1C2CC3CC(C2)CC1C3` (stereo not shown) [compound 46, N-(adamantane-2-yl)-2-methyl-2-(2,4-dichlorophenylsulfonamido)propanamide] are 0.105 µM and 0.621 µM.
The corresponding values for `CN(C(C)(C)C(=O)NC1C2CC3CC1CC(C(N)=O)(C3)C2)S(=O)(=O)c1ccccc1[N+](=O)[O-]` (stereo not shown) [compound 197, N-4-(2-(2-nitro-N-methylphenylsulfonamido)-2-methylpropanamido)adamantane-1-carboxyamide] are 0.004 µM and 0.008 µM.
The corresponding values for `CC(C)(NS(=O)(=O)c1cc(C(F)(F)F)cc(C(F)(F)F)c1)C(=O)NC1C2CC3CC(C2)CC1C3` (stereo not shown) [compound 49, N-(adamantane-2-yl)-2-methyl-2-(3,5-ditrifluoromethylphenylsulfonamido)propanamide] are 1.35 µM and more than 2.5 µM.
Take `CC(C)(NS(=O)(=O)c1c(F)cccc1F)C(=O)NC1C2CC3CC(C2)CC1C3` (stereo not shown) [compound 41, N-(adamantane-2-yl)-2-methyl-2-(2,6-difluorophenylsulfonamido)propanamide]: the IC50 in assay [1] was 0.041 µM; in assay [2], 0.156 µM.
The matching figures for `O=C(NC1C2CC3CC(C2)CC1C3)C1(NS(=O)(=O)c2ccc([N+](=O)[O-])cc2)CCC1` (stereo not shown) [compound 143, N-(adamantane-2-yl)-1-(4-nitrophenylsulfonamido)cyclobutanecarboxyamide]: more than 2.5 µM and more than 2.5 µM.
